Measurements published in patent publication US20150018403A1, “FLUORENE-AMIDE COMPOUNDS AND PHARMACEUTICAL USE THEREOF” (JAPAN TOBACCO INC., priority 2013, published 2015).

Assays:
[1] = target: T1, human PDHK2 (hPDHK2) (Homo sapiens, UniProt Q15119); test: Inhibitory action of PDHK2 activity in vitro (residual PDH activity after kinase reaction); format: biochemical; conditions: PDH/hPDHK2 complex, 45 min kinase reaction at room temperature; read-out: hPDHK2 IC50
T1 construct: made in house; host or cells: Escherichia coli BL21(DE3), pET17b vector
Protocol: The inhibitory action of PDHK activity was assessed indirectly by measuring the residual PDH activity after kinase reaction in the presence of a test compound.
In the case of human PDHK2 (hPDHK2, Genbank Accession No. BC040478.1), modified hPDHK2 cDNA wherein FLAG-Tag sequence was added to the N terminus of hPDHK2 cDNA clone (pReceiver-M01/PDK2-GeneCopoeia) was prepared by PCR and cloned into a vector (pET17b-Novagen). The recombinant construct was transformed into Escherichia coli (DH5α-TOYOBO). The recombinant clones were identified, and plasmid DNA was isolated and subjected to the DNA sequence analysis. One clone which had the expected nucleic acid sequence was selected for expression work.
For expression of hPDHK2 activity, Escherichia coli strain BL21(DE3) cells (Novagen) were transformed with the pET17b vector containing modified hPDHK2 cDNA. The Escherichia coli were grown to an optical density 0.6 ([…]) at 30° C. Protein expression was induced by the addition of 500 μmol/L isopropyl-β-thiogalactopyranoside. The Escherichia coli were cultured at 30° C. for 5 hr and harvested by centrifugation. Resuspension of the Escherichia coli paste was disrupted by a microfluidizer. FLAG-Tagged protein was purified using FLAG affinity gel. The gel was washed with 20 mmol/L HEPES-NaOH, 500 mmol/L sodium chloride, 1% ethylene glycol, and 0.1% Pluronic F-68 (pH 8.0), and the binding protein was eluted with 20 mmol/L HEPES-NaOH, 100 μg/mL FLAG peptide, 500 mmol/L sodium chloride, 1% ethylene glycol, and 0.1% Pluronic F-68 (pH 8.0). The eluted fractions containing FLAG-Tagged protein were pooled, dialyzed against 20 mmol/L HEPES-NaOH, 150 mmol/L sodium chloride, 0.5 mmol/L EDTA, 1% ethylene glycol, and 0.1% Pluronic F-68 (pH 8.0), and preserved at −80° C.
0.05 U/mL PDH and 0.8 μg/mL hPDHK2 were mixed in a buffer (50 mmol/L 3-morpholinopropanesulfonic acid (pH 7.0), 20 mmol/L dipotassium hydrogen phosphate, 60 mmol/L potassium chloride, 2 mmol/L magnesium chloride, 0.4 mmol/L EDTA, and 0.2% Pluronic F-68, 2 mmol/L dithiothreitol), and the mixture was incubated at 4° C. overnight to obtain a PDH/hPDHK2 complex. The test compounds were diluted with DMSO. […] DMSO (1.5 μL) was added to control wells instead of the test compound. […] The mixture was incubated at room temperature for 90 min, and the residual PDH activity was measured. The absorbance at 340 nm before and after PDH reaction was measured using a microplate reader to detect NADH produced by the PDH reaction. The hPDHK2 inhibition rate (%) of the test compound was calculated from the formula [{(PDH activity of test compound−PDH activity of control)/PDH activity of blank−PDH activity of control)}×100].

[2] = Metabolic stability test in human liver microsome; format: in vitro ADME; conditions: 37° C., 5 μM
Protocol: Human liver microsome (manufactured by Xenotech, H0620, final concentration (after dilution), 0.2 mg protein/mL) was suspended in 100 mM potassium phosphate buffer (pH 7.4, containing β-nicotinamide adenine dinucleotide phosphate: 1.3 mM, D-glucose-6-phosphate: 3.3 mM, magnesium chloride: 3.3 mM, glucose-6-phosphate dehydrogenase: 0.45 U/mL), and further mixed with a test compound dissolved in MeCN/DMSO (95/5) (final concentration 5 μM). The mixture was incubated at 37° C. for 10 min and 60 min, acetonitrile containing formic acid (final concentration 0.1%) was added, and the mixture was centrifuged. The test compound (unmodified) in the supernatant was measured by high performance liquid chromatography/mass spectrometry (LC/MS) (manufactured by Waters, LC: Acquity UPLC, MS:SQ Detector or TQ Detector). The residual ratio (%) was calculated from the obtained measurement value.

[3] = Metabolic stability test in rat liver microsome; format: in vitro ADME

Row | IC50 [1] [nM] | stability in liver microsome (residual ratio %) ([2]; 10 min) [%] | stability in liver microsome (residual ratio %) ([2]; 60 min) [%] | stability in liver microsome (residual ratio %) ([3]; 10 min) [%] | stability in liver microsome (residual ratio %) ([3]; 60 min) [%] | SMILES
1 | 4.9 | 98.9 | 97.2 | 98.3 | 98.5 | C[C@H](O)COc1cc(-c2cnn(C(C)(C)C(N)=O)c2)c2c(c1)[C@@](O)(C(F)(F)F)c1ccccc1-2 [compound (2), 2-(4-{(9R)-9-hydroxy-2-[(2S)-2-hydroxypropoxy]-9-(trifluoromethyl)-9H-fluoren-4-yl}-1H-pyrazol-1-yl)-2-methylpropanamide]
2 | 7.4 | 98.0 | 88.2 | 101.1 | 92.1 | Cn1cc(-c2cc(OCC(C)(C)O)cc3c2-c2ccccc2[C@]3(O)C(F)(F)F)cn1 [compound (B), (9R)-2-(2-Hydroxy-2-methylpropoxy)-4-(1-methyl-1H-pyrazol-4-yl)-9-(trifluoromethyl)-9H-fluoren-9-ol, reference compound]
